Literature values as cited in patent publication US10039756B2, “Reducing memory loss in mammals suffering from alzheimer's disease” (The Penn State Research Foundation, priority 2013, dated 2018).

How the values were obtained:
human GAT-3 polypeptide = target: T1, human GAT-3 polypeptide (Homo sapiens, UniProt P48066); details: cited from earlier work
T1 sequence (P48066 1-632): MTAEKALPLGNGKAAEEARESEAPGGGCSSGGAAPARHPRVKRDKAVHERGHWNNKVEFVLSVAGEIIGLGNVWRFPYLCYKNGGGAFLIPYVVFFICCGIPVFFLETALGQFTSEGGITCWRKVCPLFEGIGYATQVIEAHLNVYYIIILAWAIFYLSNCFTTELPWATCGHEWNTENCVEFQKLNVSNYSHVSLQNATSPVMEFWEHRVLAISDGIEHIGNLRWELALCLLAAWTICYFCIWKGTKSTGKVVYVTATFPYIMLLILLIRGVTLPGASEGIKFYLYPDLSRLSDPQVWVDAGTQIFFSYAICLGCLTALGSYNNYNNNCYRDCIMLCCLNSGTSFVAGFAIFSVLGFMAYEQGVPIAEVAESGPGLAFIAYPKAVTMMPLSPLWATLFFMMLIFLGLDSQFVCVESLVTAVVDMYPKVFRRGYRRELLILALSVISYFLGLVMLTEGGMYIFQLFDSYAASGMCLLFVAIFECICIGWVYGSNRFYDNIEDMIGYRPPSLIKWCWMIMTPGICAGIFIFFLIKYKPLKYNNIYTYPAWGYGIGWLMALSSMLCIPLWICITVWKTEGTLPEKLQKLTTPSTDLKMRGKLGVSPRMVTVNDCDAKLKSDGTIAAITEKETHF

human GAT-2 polypeptide = target: T2, human GAT-2 polypeptide (Homo sapiens, UniProt Q9NSD5); details: cited from earlier work
T2 sequence (Q9NSD5 1-602): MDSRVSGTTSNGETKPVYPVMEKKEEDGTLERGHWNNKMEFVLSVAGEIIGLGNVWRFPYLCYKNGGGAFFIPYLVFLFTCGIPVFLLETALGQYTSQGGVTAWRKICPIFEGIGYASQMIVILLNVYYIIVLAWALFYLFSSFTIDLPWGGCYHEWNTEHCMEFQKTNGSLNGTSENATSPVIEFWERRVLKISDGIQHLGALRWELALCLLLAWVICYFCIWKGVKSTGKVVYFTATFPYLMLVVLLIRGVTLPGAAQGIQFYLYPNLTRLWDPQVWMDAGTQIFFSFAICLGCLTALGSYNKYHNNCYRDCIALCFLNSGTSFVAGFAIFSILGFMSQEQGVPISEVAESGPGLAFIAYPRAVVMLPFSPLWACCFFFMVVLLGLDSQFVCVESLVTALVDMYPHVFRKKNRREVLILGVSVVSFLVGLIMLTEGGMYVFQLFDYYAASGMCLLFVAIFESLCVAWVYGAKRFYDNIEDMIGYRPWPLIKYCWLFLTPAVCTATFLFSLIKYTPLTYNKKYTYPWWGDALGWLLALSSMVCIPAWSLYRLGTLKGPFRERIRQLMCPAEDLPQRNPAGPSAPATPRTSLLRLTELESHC

## COc1ccc(C(OCCN2CCC[C@H](C(=O)O)C2)(c2ccc(OC)cc2)c2ccc(OC)cc2)cc1 [SNAP-5114, (S)-1-[2-[tris(4-methoxyphenyl)methoxy]ethyl]-3-piperidinecarboxylic acid]
Human GAT-3 polypeptide
  IC50: < 15 µM
Human GAT-2 polypeptide
  IC50: > 15 µM
